ChEMBL document CHEMBL4392854, “Discovery, synthesis, biological evaluation and molecular docking study of (R)-5-methylmellein and its analogs as selective monoamine oxidase A inhibitors” (Bioorg Med Chem, 2019)

Columns and labels:
Homo sapiens = species: Homo sapiens; experiment: Selectivity index, ratio of IC50 for human recombinant MAOB to IC50 for human recombinant MAOA
[1] = target: T1, Amine oxidase [flavin-containing] B (Homo sapiens, UniProt P27338); experiment: Inhibition of human recombinant MAOB using kynuramine as substrate incubated for 10 mins by UPLC-ESI-MS/MS analysis
T1 sequence (P27338 whole entry): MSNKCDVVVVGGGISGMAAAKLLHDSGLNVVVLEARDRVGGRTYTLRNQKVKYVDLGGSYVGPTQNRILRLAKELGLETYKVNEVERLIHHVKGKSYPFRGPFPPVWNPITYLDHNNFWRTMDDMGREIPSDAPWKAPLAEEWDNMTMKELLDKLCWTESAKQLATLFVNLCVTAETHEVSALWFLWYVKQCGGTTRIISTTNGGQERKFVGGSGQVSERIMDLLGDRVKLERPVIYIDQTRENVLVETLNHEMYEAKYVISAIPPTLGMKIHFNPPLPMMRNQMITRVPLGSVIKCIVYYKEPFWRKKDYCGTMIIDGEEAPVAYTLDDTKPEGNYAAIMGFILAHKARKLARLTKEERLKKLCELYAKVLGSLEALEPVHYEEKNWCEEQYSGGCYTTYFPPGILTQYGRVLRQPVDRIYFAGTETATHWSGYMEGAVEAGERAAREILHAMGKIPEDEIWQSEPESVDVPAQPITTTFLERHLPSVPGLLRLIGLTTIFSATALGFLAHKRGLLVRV

[2] = target: T2, Amine oxidase [flavin-containing] A (Homo sapiens, UniProt P21397); experiment: Inhibition of human recombinant MAOA using kynuramine as substrate incubated for 10 mins by UPLC-ESI-MS/MS analysis
T2 sequence (P21397 whole entry): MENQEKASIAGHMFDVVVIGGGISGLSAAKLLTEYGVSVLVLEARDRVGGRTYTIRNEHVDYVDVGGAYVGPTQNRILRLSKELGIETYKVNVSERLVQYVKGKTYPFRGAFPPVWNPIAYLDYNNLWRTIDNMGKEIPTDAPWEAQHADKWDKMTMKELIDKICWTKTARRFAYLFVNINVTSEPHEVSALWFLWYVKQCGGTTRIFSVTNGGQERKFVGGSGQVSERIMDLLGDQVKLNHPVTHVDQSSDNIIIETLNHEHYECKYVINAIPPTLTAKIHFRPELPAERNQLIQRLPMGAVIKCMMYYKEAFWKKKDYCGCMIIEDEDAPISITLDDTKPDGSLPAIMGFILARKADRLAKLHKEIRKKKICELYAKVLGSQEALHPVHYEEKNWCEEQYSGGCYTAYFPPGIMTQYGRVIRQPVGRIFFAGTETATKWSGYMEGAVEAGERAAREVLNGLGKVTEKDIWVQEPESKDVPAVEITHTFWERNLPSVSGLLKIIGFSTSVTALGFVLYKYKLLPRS

Monoamine oxidase = target: T3, Monoamine oxidase (Mus musculus, UniProt Q8BW75+Q64133); experiment: Inhibition of mouse brain monoamine oxidase
T3 sequence (Q8BW75 whole entry): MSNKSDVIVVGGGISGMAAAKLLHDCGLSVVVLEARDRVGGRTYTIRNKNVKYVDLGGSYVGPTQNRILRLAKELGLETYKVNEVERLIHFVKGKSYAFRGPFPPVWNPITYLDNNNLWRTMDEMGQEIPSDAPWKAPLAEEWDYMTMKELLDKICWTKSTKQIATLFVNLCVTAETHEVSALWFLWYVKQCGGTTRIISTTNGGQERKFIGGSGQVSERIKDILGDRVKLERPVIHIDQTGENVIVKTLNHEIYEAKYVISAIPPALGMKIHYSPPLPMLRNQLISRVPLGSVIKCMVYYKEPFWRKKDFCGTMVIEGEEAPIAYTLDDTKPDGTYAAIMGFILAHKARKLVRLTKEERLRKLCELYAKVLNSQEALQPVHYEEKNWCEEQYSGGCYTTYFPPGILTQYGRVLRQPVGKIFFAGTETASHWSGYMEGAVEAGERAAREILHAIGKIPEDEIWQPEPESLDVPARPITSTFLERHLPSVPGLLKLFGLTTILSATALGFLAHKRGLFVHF
T3 sequence (Q64133 whole entry): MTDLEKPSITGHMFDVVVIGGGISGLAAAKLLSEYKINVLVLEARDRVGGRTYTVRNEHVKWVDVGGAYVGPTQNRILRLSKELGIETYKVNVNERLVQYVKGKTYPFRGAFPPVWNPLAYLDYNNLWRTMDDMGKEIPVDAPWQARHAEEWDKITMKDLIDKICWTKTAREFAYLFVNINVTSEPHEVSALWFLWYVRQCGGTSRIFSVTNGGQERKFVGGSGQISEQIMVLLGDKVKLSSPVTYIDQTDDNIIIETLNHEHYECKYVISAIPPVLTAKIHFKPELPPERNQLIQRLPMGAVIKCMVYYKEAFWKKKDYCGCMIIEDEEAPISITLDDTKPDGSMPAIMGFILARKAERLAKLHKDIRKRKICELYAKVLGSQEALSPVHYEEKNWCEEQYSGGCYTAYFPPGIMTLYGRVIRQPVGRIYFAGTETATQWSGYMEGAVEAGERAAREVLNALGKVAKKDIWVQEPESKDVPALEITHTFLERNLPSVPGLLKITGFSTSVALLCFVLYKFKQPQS

[3] = target: T2, Amine oxidase [flavin-containing] A; experiment: Tight-binding competitive inhibition of human recombinant MAOA using kynuramine as substrate incubated for 10 mins by UPLC-ESI-MS/MS analysis based Lineweaver-Burk plot kinetic analysis
[4] = target: T2, Amine oxidase [flavin-containing] A; experiment: Inhibition of human recombinant MAOA using kynuramine as substrate incubated for 10 mins by UPLC-ESI-MS/MS analysis based Eadie-Hofstee plot analysis
[5] = target: T2, Amine oxidase [flavin-containing] A; experiment: Inhibition of human recombinant MAOA using kynuramine as substrate incubated for 10 mins by UPLC-ESI-MS/MS analysis based Michaelis-Menten plot kinetic analysis

| SMILES | Ratio IC50 (Homo sapiens) | IC50 [1] | IC50 [2] | IC50 (Monoamine oxidase) | inhibition (INH) [3] | inhibition (INH) [4] | inhibition (INH) [5] |
| --- | --- | --- | --- | --- | --- | --- | --- |
| Cc1ccc(O)c2c1CCOC2=O | 1.7 | 5.5 µM | 3.2 µM |  |  |  |  |
| Cc1cc(C(=O)N2CCOCC2)c(O)c2c1C[C@@H](C)OC2=O |  | > 50 µM | > 50 µM |  |  |  |  |
| CC[C@@H]1Cc2c(C)cc(-c3ccc(N)cc3)c(O)c2C(=O)O1 | > 167 | > 50 µM | 0.3 µM |  |  |  |  |
| CCN(CC)C(=O)c1cc(C)c2c(c1O)C(=O)O[C@H](C)C2 |  | > 50 µM | > 50 µM |  |  |  |  |
| Cc1cc(-c2ccccn2)c(O)c2c1C[C@@H](C)OC2=O | > 24 | > 50 µM | 2.1 µM |  |  |  |  |
| COc1ccc(C)c2c1C(=O)O[C@@H](C)C2 |  | > 50 µM | > 50 µM |  |  |  |  |
| CC[C@@H]1Cc2c(C)ccc(O)c2C(=O)O1 | > 6.2 | > 50 µM | 8 µM |  |  |  |  |
| Cc1cc(-c2ccc(C(F)(F)F)cc2)c(O)c2c1C[C@@H](C)OC2=O | 0.1 | 1 µM | 13.7 µM |  |  |  |  |
| C[C@@H]1Cc2c(O)ccc(O)c2C(=O)O1 | > 2.9 | > 50 µM | 17.1 µM |  |  |  |  |
| CCCCc1cc(C)c2c(c1O)C(=O)O[C@H](C)C2 | > 2.7 | > 50 µM | 18.3 µM |  |  |  |  |
| Cc1cc(CO)c(O)c2c1C[C@@H](C)OC2=O | > 2.6 | > 50 µM | 19.2 µM |  |  |  |  |
| C[C@@H]1Cc2c(C(=O)O)ccc(O)c2C(=O)O1 |  | > 50 µM | > 50 µM |  |  |  |  |
| Cc1cc(C)c2c(c1O)C(=O)O[C@H](C)C2 | > 13 | > 50 µM | 3.8 µM |  |  |  |  |
| Cc1cc([N+](=O)[O-])c(O)c2c1C[C@@H](C)OC2=O | > 3.1 | > 50 µM | 15.8 µM |  |  |  |  |
| Cc1cc(C(=O)NCCN2CCOCC2)c(O)c2c1C[C@@H](C)OC2=O |  | > 50 µM | > 50 µM |  |  |  |  |
| Cc1cc(C(=O)N2CCN(C)CC2)c(O)c2c1C[C@@H](C)OC2=O |  | > 50 µM | > 50 µM |  |  |  |  |
| CCCc1cc(C)c2c(c1O)C(=O)O[C@H](C)C2 | > 11 | > 50 µM | 4.5 µM |  |  |  |  |
| Cc1ccc(O)c2c1C[C@@H](C)OC2=O | 8.3 | 38.5 µM | 4.6 µM | 1.06 µM |  |  |  |
| COc1ccc(NCc2cc(C)c3c(c2O)C(=O)O[C@H](C)C3)cc1 | > 11 | > 50 µM | 4.4 µM |  |  |  |  |
| Cc1cc(C(=O)N(C)C)c(O)c2c1C[C@@H](C)OC2=O |  | > 50 µM | > 50 µM |  |  |  |  |
| Cc1cc(-c2ccc(N)cc2)c(O)c2c1C[C@@H](C)OC2=O | 26 | 21 µM | 0.8 µM |  |  |  |  |
| Cc1cc(C#N)c(O)c2c1C[C@@H](C)OC2=O |  | > 50 µM | > 50 µM |  |  |  |  |
| Cc1cc(-c2cccnc2)c(O)c2c1C[C@@H](C)OC2=O | > 250 | > 50 µM | 0.2 µM |  | Active | Active | Active |
| Cc1cc(C(=O)O)c(O)c2c1C[C@@H](C)OC2=O |  | > 50 µM | > 50 µM |  |  |  |  |

| SMILES | Ratio IC50 (Homo sapiens) | IC50 [1] | IC50 [2] | IC50 (Monoamine oxidase) | inhibition (INH) [3] | inhibition (INH) [4] | inhibition (INH) [5] |
| --- | --- | --- | --- | --- | --- | --- | --- |
| CCc1ccc(O)c2c1C[C@@H](C)OC2=O | < 0.3 | 16.1 µM | > 50 µM |  |  |  |  |
| Cc1cc(N(C)C)c(O)c2c1C[C@@H](C)OC2=O | > 3.6 | > 50 µM | 13.6 µM |  |  |  |  |
| Cc1ccc(-c2cc(C)c3c(c2O)C(=O)O[C@H](C)C3)cc1 | 0.3 | 4.1 µM | 12.4 µM |  |  |  |  |
| Cc1cc(Br)c(O)c2c1C[C@@H](C)OC2=O | > 1.7 | > 50 µM | 28.6 µM |  |  |  |  |
| C[C@@H]1Cc2cccc(O)c2C(=O)O1 [(-)-(R)-MELLEIN] | 8.1 | 50 µM | 6.2 µM |  |  |  |  |
| Cc1cc2cccc(O)c2c(=O)o1 | > 2 | > 50 µM | 23.4 µM |  |  |  |  |
| Cc1cc(N)c(O)c2c1C[C@@H](C)OC2=O | > 11 | > 50 µM | 4.1 µM |  |  |  |  |
| Cc1cc(-c2ccccc2)c(O)c2c1C[C@@H](C)OC2=O | 0.1 | 1 µM | 10.5 µM |  |  |  |  |
| Cc1cc(Cl)c(O)c2c1C[C@@H](C)OC2=O | > 22 | > 50 µM | 2.2 µM |  |  |  |  |
| Cc1cc(-c2ccncc2)c(O)c2c1C[C@@H](C)OC2=O | > 18 | > 50 µM | 2.7 µM |  |  |  |  |
| Cc1cc(-c2cccc(N)c2)c(O)c2c1C[C@@H](C)OC2=O | > 250 | > 50 µM | 0.2 µM |  | Active | Active | Active |
| Cc1cc(-c2cncnc2)c(O)c2c1C[C@@H](C)OC2=O | > 350 | > 50 µM | 0.14 µM |  | Active | Active | Active |
| Cc1cc(I)c(O)c2c1C[C@@H](C)OC2=O | > 3.1 | > 50 µM | 15.9 µM |  |  |  |  |
| COc1ccc(C)c2c1C(=O)O[C@H](C)C2 |  | > 50 µM | > 50 µM |  |  |  |  |
| Cc1ccc(O)c2c1CC(C)(C)OC2=O |  | > 50 µM | > 50 µM |  |  |  |  |
| Cc1cc(-c2ccc(O)cc2)c(O)c2c1C[C@@H](C)OC2=O | 38 | 38.9 µM | 1.1 µM |  |  |  |  |
| C[C@H]1Cc2cccc(O)c2C(=O)O1 | 3.2 | 24 µM | 7.5 µM |  |  |  |  |
| Cc1cc(-c2cccc([N+](=O)[O-])c2)c(O)c2c1C[C@@H](C)OC2=O | > 17 | > 50 µM | 3 µM |  |  |  |  |
| COc1cccc2c1C(=O)O[C@H](C)C2 |  | > 50 µM | > 50 µM |  |  |  |  |
| C=CC(=O)Nc1cc(C)c2c(c1O)C(=O)O[C@H](C)C2 |  | > 50 µM | > 50 µM |  |  |  |  |
| C[C@@H]1Cc2c(CO)ccc(O)c2C(=O)O1 |  | > 50 µM | > 50 µM |  |  |  |  |
| CCc1cc(C)c2c(c1O)C(=O)O[C@H](C)C2 | > 17 | > 50 µM | 2.9 µM |  |  |  |  |
| Cc1ccc(O)c2c1C[C@H](C)OC2=O | 10 | 40.9 µM | 4.1 µM |  |  |  |  |
